Source: US8642337B2, “Defined surfaces of self-assembled monolayers and stem cells” (Wisconsin Alumni Research Foundation, priority 2005, dated 2014)
No end group written: not given here.

Experiments:
[1] = system: hES cells; experiment: FACS analysis of ES cells proliferated on large areas presenting synthetic substrates (one-component SAMs); assay type: cell-based, human; details: for Oct4 (% population): FACS, ES cells on one-component SAMs on 22×22 mm gold-coated substrates, after 1 week
Text: Examination of the cell population within an array element provides a semi-quantitative indication of differentiation state of the ES cells. More rigorous analysis involves fluorescence-activated cell sorting (FACS) measurements to identify what population of the cells express specific markers of pluripotent stem cells. Therefore, we proliferated hES cells on gold-coated substrates of larger area (22×22 mm) containing one-component SAMs. FIG. 2a illustrate a representative FACS analysis of an ES cell population grown on a synthetic substrate after 1 week. Table 1 outlines the percentages of Oct4 positive cells obtained from each particular substrate. […] Specifically, we tested hES cell line H9 grown in synthetic media supplemented with high concentrations of basic FGF (referred to as UM100, indicating presence of […] of FGF-2 among the other components). Importantly, these conditions support growth of undifferentiated hES cells on Matrigel®.

[2] = system: Swiss 3T3 fibroblast cells; experiment: Fibroblast adhesion on patterned SAM chips/arrays; assay type: cell-based
Description: (§1) General Preparation of the Arrays of Self-Assembled Monolayers (Assembly After Conjugation Strategy): Chromium (1 nm) and then gold (25 nm) were evaporated onto piranha-cleaned glass coverslips (Corning No […], 23 mm squares) using a thermal evaporator (Denton Vacuum, Moorestown, N.J.). Substrates were immediately immersed into a 1 mM solution of fluoro-AT in absolute ethanol. After twenty-four hours, substrates were thoroughly rinsed with ethanol and dried under a stream of nitrogen. Coverslips with fluoro-AT SAM were irradiated with UV-light (1 kW, Hg—Xe Research Arc Lamp, Oriel Instruments (Spectra-Physics, Stratford, Conn.) through a quartz photomask (array of 500 μm or 750 μm squares, 0.067 quartz-chromium mask (Photo Sciences, Torrance, Calif.)) for 1 hour. Irradiated samples were rinsed thoroughly using several repetitive washes with absolute ethanol and distilled water and dried under a steam of nitrogen. Spotting of AT solutions onto the bare gold areas was performed within two hours of the photolithography. Spotting was performed manually using a P2-Pipetman (Gilson) in a humidity chamber. Spotted arrays were stored in the humidity chamber for twelve hours and thoroughly washed using repeated washes with ethanol and water. Rapid flow during washing was used to prevent cross-contamination of array spots.
Cell Culture: A neuroblastoma cell line, SH-SY5Y, was grown in 10% heat-inactivated fetal bovine serum (HI FBS), 45% high glucose Dulbecco's modified Eagle medium (DMEM), 45% Ham's F12 nutritional supplement (F12) with penicillin and streptomycin in an atmosphere of 5% CO2 at 37° C. A fibroblast cell line, Swiss 3T3, was propagated in 10% HI FBS in DMEM. For plating of the cells on the chips, cells were incubated at 37° C. with 5% trypsin/ethylenediamine-tetraacetic acid (EDTA), centrifuged and resuspended in media at 2×10^5 cells/mL and 5×10^5 cells/mL for the fibroblasts and neuroblastomas, respectively. Chips were sterilized by placing each in a single well of a 6-well plate, soaking in 70% ethanol, and drying under UV light for 1 hour. […]

[3] = system: SH-SY5Y neuroblastoma cells; experiment: Neuroblastoma adhesion on patterned SAM chips/arrays; assay type: cell-based
Description: as §1
Cell Culture: A neuroblastoma cell line, SH-SY5Y, was grown in 10% heat-inactivated fetal bovine serum (HI FBS), 45% high glucose Dulbecco's modified Eagle medium (DMEM), 45% Ham's F12 nutritional supplement (F12) with penicillin and streptomycin in an atmosphere of 5% CO2 at 37° C. A fibroblast cell line, Swiss 3T3, was propagated in 10% HI FBS in DMEM. For plating of the cells on the chips, cells were incubated at 37° C. with 5% trypsin/ethylenediamine-tetraacetic acid (EDTA), centrifuged and resuspended in media at 2×10^5 cells/mL and 5×10^5 cells/mL for the fibroblasts and neuroblastomas, respectively. Chips were sterilized by placing each in a single well of a 6-well plate, soaking in 70% ethanol, and drying under UV light for 1 hour. To the individual chips was added 3 mL of the cell suspensions to each well. After 2-5 hours, the media was gently replaced three times and the chips were picked up, transferred to a clean well and 3 mL of media was added. The cells on the chips were typically propagated between 1-7 days. The media was then removed, and the cells were fixed in PFA buffer (2% paraformaldehyde, 350 mM NaCl, 150 mM HEPES, 10 mM CaCl2, pH 7.4) for 20 minutes at 0° C. The cells were washed twice with Dulbecco's phosphate buffered saline and stained (0.1% Coomassie Brilliant Blue in H2O/MeOH/AcOH (50:50:1)) for 5-15 minutes after which the cells were washed twice with water and air dried. […]

[4] = system: hES cells (H1 and H9); experiment: hES cell adhesion and growth screen on arrays of SAMs presenting peptides; assay type: cell-based, human; details: for Ability to support ES cell growth: laminin fragment screen on SAM array
Description: Human Embryonic Stem Cell Propagation and Plating: The human ES cell line, H1, was grown on Matrigel®-coated plates in MEF-CM supplemented with 4 ng/mL basic fibroblast growth factor (bFGF). To produce CM, MEFs were seeded at a density of 2.12×10^5 cells/mL and fed medium consisting of DMEM/F12, 20% Knockout™ serum replacement, 2 mM L-glutamine, 1% minimal essential media nonessential amino acids and 0.1 mM β-mercaptoethanol. Both cell lines (H1 and MEF) were maintained at 37° C./5% CO2 with CM collected, and cells fed approximately every 24 hours. Cell suspensions were made by treating with collagenase IV (1 mg/mL) for 10-12 minutes. The cells were scraped from the surface and suspended in CM.
Chips were sterilized as described above. To aid in ES cell patterning, the chips were then soaked in DMEM/F12 with 15% defined FBS for 1-2 hours and washed thoroughly. Then cells were plated on each chip (1-2×10^6 cells/chip) and allowed to incubate overnight. The next morning the chips were moved to fresh wells and fed with CM.
Test for alkaline phosphatase activity: The procedure for staining for alkaline phosphatase activity was essentially identical to the procedure supplied by the manufacturer. After propagation of the ES cells, the media was removed. The reagents in 100 mM Tris pH 8.5 were incubated with the chips for 30 minutes at 25° C. The chips were washed gently for 5 min with Tris buffer and then fixed and dried as usual.
We tested arrays of SAMs presenting a number of short peptides for their ability to support the growth of undifferentiated hES cells. The screen was done with the array presenting square elements of 0.5×0.5 mm (FIG. 1b) or 0.8×0.8 mm size (FIG. 1c). The 0.5×0.5 mm allowed 196 binding elements to be located on a single 22 mm square chip, and in turn the chip can easily fit in one well of a six-well culture plate. The ability of microarrays to localize multiple experiments to same a solution environment is invaluable for applications requiring frequent maintenance. For example, cultures of undifferentiated ES cell require daily changes of growth media. These changes can be easily performed on the entire microarray in one large well of a cell culture plate. For comparison, daily maintenance of experiments, on the same scale, performed in two 96-well plates, while practical, would require either significant human labor or specialized robotic equipment to function in a sterile environment to perform daily maintenance.
Cells grown on Matrigel® were detached using collagenase treatment and were plated on the microarray chip in the presence of CM. After twenty-four hours, media was replaced to remove dead and non-adherent cells. Attached cells were allowed to proliferate on the chip for five to six days and were supplement with fresh conditioned growth media daily. The experiment was stopped once cells reached 100% density in several (but not all) array elements. If continued, the cells in the array elements presenting 100% cell density usually detached, yielding square-shaped sheets of cells floating in solution, while cells in the other elements continued proliferation (not shown). This observation is consistent with those made earlier indicating cell growth variability in multi-component arrays and importance of the balanced duration of the experiment. Once the experiment was stopped, the cells were fixed and stained for markers of hES cell pluripotency. […]

[5] = system: hES cells (H1B); experiment: Differentiation experiment: Oct-4 immunofluorescence on peptide surface arrays; assay type: cell-based, human; details: cultured on arrays thirteen days
Text: Differentiation Experiment: SIDQVEPYSSTAQ (FGF, SEQ ID NO:8) is known to bind FGF receptor. FGF signaling, in turn, can suppress hES cell differentiation. […] (SEQ ID NO:9) is known to bind BMP-receptor. BMP signaling induces hES cell differentiation. KKQRFRHRNRKG (VHB, SEQ ID NO:10) is a heparin binding motif from vitronectin. Vitronectin supports hES cell adhesion. RGD peptide is known to bind cell surface receptors (integrins) involved in adhesion of various cell types.
hES cells (H1B) were passaged using the protease dispase from Matrigel® to the peptide surface arrays described above containing either BMP/RGD, BMP/VHB, FGF, FGF/RGD or FGF/VHB at various concentrations. hES cells were cultured on the arrays for thirteen days, fixed and stained by immunofluorescence. The cells were stained for a marker of pluripotency, Oct-4 (Green), and counterstained with DAPI (Blue).

GRYVVLPR (not fully specified (C-terminus); also: alkane thiol SAM)
Oct4 (% population) [1]: 98.99 % population

DITYVRLKF (not fully specified (C-terminus); also: alkane thiol SAM)
Oct4 (% population) [1]: 99.78 % population
Oct4 expression by FACS ([1]; hES cell line H9, UM100 media (100 mg/ml of FGF-2), 1 week of culture): high level of Oct4 expression

YIGSR: sequence found in the matrix protein laminin, presented as peptide-AT array element (not fully specified (C-terminus); also: AT array conjugate) [reference compound]
Cell binding to peptide array element ([2]; fibroblasts, mixtures of polyol-AT and peptide-AT spotted): bound modestly
Cell adherence to peptide array element ([3]; neuroblastoma cells, mixtures of polyol-AT and peptide-AT spotted): adhered
Ability to support ES cell growth [4]: support ES cell growth

DIRVTLNRL (not fully specified (C-terminus); also: alkane thiol SAM)
Oct4 (% population) [1]: 99.62 % population

GNRWHSIYITRFG
Ability to support ES cell growth [4]: support ES cell growth

GRNIAEIIKDI (not fully specified (C-terminus); also: alkane thiol SAM)
Oct4 (% population) [1]: 98.12 % population
Cell binding to peptide on surface density gradient array ([4]; H1 cells, peptide-AT co-assembled with glucamine-AT): exhibits specific binding

SDPGYIGSR (not fully specified (C-terminus); also: SAM immobilized) [laminin peptide containing YIGSR recognition motif, presented on SAM in either orientation]
ES cell adhesion ([4]; N-to-C orientation exposing YIGSR moiety): supports cell adhesion for ES cells, albeit with moderate reproducibility
ES cell adhesion ([4]; switched surface orientation, exposing SDPG-portion, same plating environment): obliterates cell adhesion

O=C(O)COCCOCCOCCOCCOCCCCCCCCCCCS [PEG acid-AT]
Measured cell adhesion versus mole fraction of acid ([2]; Swiss 3T3, PEG acid-AT diluted with polyol-AT in spotting solutions): decreased as the mole fraction of the acid in the spotting solutions approached 0.2
Cell growth on surface ([2]; Swiss-3T3, chips with fluoro-AT SAM background and PEG acid-AT squares made by immersion): dense squares of cells
Measured cell adhesion versus mole fraction of acid ([3]; SH-SY5Y, PEG acid-AT diluted with polyol-AT in spotting solutions): decreased as the mole fraction of the acid in the spotting solutions approached 0.2
Cell binding to spotted SAM ([3]; SH-SY5Y, SAMs formed by spotting AT solutions on bare gold squares): cells affixed to only the expected cytophilic surface
Cell growth on surface ([3]; SH-SY5Y, chips with fluoro-AT SAM background and PEG acid-AT squares made by immersion): dense squares of cells

FGF: peptide known to bind FGF receptor (SIDQVEPYSSTAQ)
hES cell self-renewal / Oct-4 expression [5]: no longer express Oct-4
